According to ChEMBL document CHEMBL6153059, “Discovery of a Potent Triazole-Based Reversible Targeted Covalent Inhibitor of Cruzipain” (ACS Med Chem Lett, 2025):
The source made the active and inactive calls. No cut-off for these calls is given here.

How the values were obtained:
Cruzipain = Cruzipain (Trypanosoma cruzi, UniProt P25779); experiment: Inhibition of Trypanosoma cruzi cruzain using Z-FR-AMC as substrate preincubated for 10 mins followed by substrate addition and measured every 5 secs for 10 mins by fluorimetry
Trypanosoma cruzi [1] = experiment: Antitrypanosomal activity against Trypanosoma cruzi Tulahuen trypomastigotes expressing Escherichia coli beta-galactosidase infected in African green monkey Vero cells incubated for 72 hrs by ONPG dye based microplate reader analysis; format: functional, organism-based
[2] = target: Cruzipain (Trypanosoma cruzi) (UniProt P25779); experiment: Inhibition of Trypanosoma cruzi cruzain at 100 uM using Z-FR-AMC as substrate measured every 5 secs for 10 mins by fluorimetry
[3] = target: Cruzipain (Trypanosoma cruzi) (UniProt P25779); experiment: Inhibition of Trypanosoma cruzi cruzain at 100 uM using Z-FR-AMC as substrate preincubated for 10 mins followed by substrate addition and measured every 5 secs for 10 mins by fluorimetry; details: time 20.0 min
cathepsin L = cathepsin L (Homo sapiens, UniProt P07711); experiment: Inhibition of recombinant human cathepsin L expressed in FreeStyle 293-F cells using Z-FR-AMC as substrate at 100 uM preincubated for 10 mins followed by substrate addition and measured for 20 mins by fluorimetry; details: probe Z-FR-AMC, time 30 min
Trypanosoma cruzi [4] = experiment: Antitrypanosomal activity against Trypanosoma cruzi Tulahuen trypomastigotes expressing Escherichia coli beta-galactosidase infected in African green monkey Vero cells at 50 uM incubated for 72 hrs by ONPG dye based microplate reader analysis; format: functional
[5] = target: Cruzipain (Trypanosoma cruzi) (UniProt P25779); experiment: Covalent reversible inhibition of Trypanosoma cruzi cruzain assessed as recovery of enzyme activity using Z-FR-AMC as substrate at 0.1XIC50 and measured for 2 hrs by jump dilution assay
[6] = Dissociation constant, pKa of the compound for carboxyl group by potentiometric titration analysis; format: physicochemical
Trypanosoma cruzi [7] = experiment: Antitrypanosomal activity against Trypanosoma cruzi Tulahuen trypomastigotes expressing Escherichia coli beta-galactosidase infected in African green monkey Vero cells at 10 uM incubated for 72 hrs by ONPG dye based microplate reader analysis; format: functional
[8] = Dissociation constant, pKa of the compound for secondary ammonium by potentiometric titration analysis; format: physicochemical
[9] = Cytotoxicity against African green monkey Vero cells assessed as cell viability at 50 uM incubated for 96 hrs by resazurin dye based fluorescence analysis relative to control; format: toxicity; details: chlorocebus sabaeus, read-out: Activity
[10] = target: Cruzipain (Trypanosoma cruzi) (UniProt P25779); experiment: Covalent reversible inhibition of Trypanosoma cruzi cruzain using Z-FR-AMC as substrate at 0.1XIC50 and measured at 10 mins post-dilution by jump dilution assay

Chain of Cruzipain (Trypanosoma cruzi) (P25779 123-467 limits assumed): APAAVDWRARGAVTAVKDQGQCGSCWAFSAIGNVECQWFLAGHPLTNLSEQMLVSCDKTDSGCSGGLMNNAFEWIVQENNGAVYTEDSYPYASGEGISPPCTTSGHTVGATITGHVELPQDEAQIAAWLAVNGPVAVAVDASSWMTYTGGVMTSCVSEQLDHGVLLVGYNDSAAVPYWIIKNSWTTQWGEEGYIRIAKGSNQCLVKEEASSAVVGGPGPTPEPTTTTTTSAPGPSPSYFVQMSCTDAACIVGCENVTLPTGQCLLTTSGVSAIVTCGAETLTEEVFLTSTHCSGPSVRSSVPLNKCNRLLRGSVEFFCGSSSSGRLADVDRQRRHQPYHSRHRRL
Chain of cathepsin L (P07711 whole entry): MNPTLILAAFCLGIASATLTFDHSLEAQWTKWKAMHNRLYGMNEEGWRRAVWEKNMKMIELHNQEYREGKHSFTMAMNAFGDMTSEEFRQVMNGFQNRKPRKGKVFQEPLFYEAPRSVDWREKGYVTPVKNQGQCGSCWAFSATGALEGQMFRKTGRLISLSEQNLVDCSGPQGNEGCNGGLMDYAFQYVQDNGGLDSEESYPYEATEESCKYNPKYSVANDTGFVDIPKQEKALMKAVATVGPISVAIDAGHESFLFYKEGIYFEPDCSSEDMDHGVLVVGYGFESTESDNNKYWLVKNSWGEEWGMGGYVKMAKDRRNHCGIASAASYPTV
Chain of Cruzipain (P25779 whole entry): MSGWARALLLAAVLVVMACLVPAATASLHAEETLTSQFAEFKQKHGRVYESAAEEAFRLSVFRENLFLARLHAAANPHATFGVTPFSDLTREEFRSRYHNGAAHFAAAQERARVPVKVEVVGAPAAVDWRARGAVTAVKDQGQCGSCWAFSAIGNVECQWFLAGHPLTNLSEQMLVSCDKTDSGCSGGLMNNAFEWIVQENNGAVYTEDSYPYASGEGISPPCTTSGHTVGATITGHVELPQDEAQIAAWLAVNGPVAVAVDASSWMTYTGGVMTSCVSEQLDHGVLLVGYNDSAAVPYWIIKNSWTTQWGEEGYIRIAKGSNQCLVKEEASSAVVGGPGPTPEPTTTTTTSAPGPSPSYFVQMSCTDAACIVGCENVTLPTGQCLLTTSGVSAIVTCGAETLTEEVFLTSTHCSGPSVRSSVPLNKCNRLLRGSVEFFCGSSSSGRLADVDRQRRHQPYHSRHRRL

## NCCCC[C@@H](C=O)n1cc(C(NCc2ccc3c(c2)OCO3)C2CCCCC2)nn1 (stereo partly drawn)
Cruzipain
  IC50: 3.3 µM
Trypanosoma cruzi [1]
  IC50: 3.2 µM

## SC[C@@H](Cc1ccccc1)n1cc(C(NCc2ccc3c(c2)OCO3)C2CCCCC2)nn1 (stereo partly drawn)
[2]
  inhibition: 12%
[3]
  inhibition: 79%
Cathepsin L
  inhibition at 20 min, 100 µM: 0%
Cruzipain
  IC50: 7 µM

## CCOC(=O)[C@H](CS)n1cc(C(NCc2ccc3c(c2)OCO3)C2CCCCC2)nn1 (stereo partly drawn)
[2]
  inhibition: 3%
[3]
  inhibition: 46%

## COC(=O)[C@H](CS)n1cc(C(NCc2ccc3c(c2)OCO3)C2CCCCC2)nn1 (stereo partly drawn)
[2]
  inhibition: 6%
[3]
  inhibition: 53%

## O=C(O)[C@H](CS)n1cc(C(NCc2ccc3c(c2)OCO3)C2CCCCC2)nn1 (stereo partly drawn)
Trypanosoma cruzi [4]
  inhibition at 50 µM: 98%
[5]
  inhibition: Active
[2]
  inhibition: 13%
[6]
  pKa: 4
Trypanosoma cruzi [7]
  inhibition at 10 µM: 76%
[8]
  pKa: 8.1
[3]
  inhibition: 100%
[9]
  viability at 96 h, 50 µM: 80%
[10]
  inhibition: inactive
Cathepsin L
  inhibition at 20 min, 100 µM: 0%
Cruzipain
  IC50: 0.028 µM
Trypanosoma cruzi [1]
  IC50: 6.67 µM

## COc1ccc(COC(=O)[C@H](CS)n2cc(C(NCc3ccc4c(c3)OCO4)C3CCCCC3)nn2)cc1 (stereo partly drawn)
[3]
  inhibition: 28%

## CC(C)[C@H](CS)n1cc(C(NCc2ccc3c(c2)OCO3)C2CCCCC2)nn1 (stereo partly drawn)
[2]
  inhibition: 6%
[3]
  inhibition: 43%

## O=C(O)[C@H](CSC(c1ccccc1)(c1ccccc1)c1ccccc1)n1cc(C(NCc2ccc3c(c2)OCO3)C2CCCCC2)nn1 (stereo partly drawn)
[6]
  pKa: 3
Cathepsin L
  inhibition at 20 min, 100 µM: 100%
Cruzipain
  IC50: 6 µM
